# Assay results published in patent US20110130346A1, “PEPTIDE CONJUGATES FOR DELVERY OF BIOLOGICALLY ACTIVE COMPOUNDS” (ISIS INNOVATION LIMITED, priority 2008, published 2011).
# “Also recorded” adds a separate entry of the source.
# Experiments:
# glucose transporters = assay: Example 3: glucose transporter inhibitors and hexose analogues in glucose-enhanced 2′OMePS AO uptake into TA muscle; type: in vivo; settings: 8 week old mdx mice; for effect of sugar or analogue used in place of D-glucose in 2′OMePS AO formulation on dystrophin-positive fibres: same concentration as D-glucose, intramuscular, two weeks; for effect of inhibitor on the enhancing effect of 5% D-glucose formulation of 2′OMePS AO: intramuscular into TA
# Source text: To investigate whether carrier-mediated glucose uptake might be implicated in the mechanism of enhanced AO uptake into muscle, we examined the effects of a range of glucose concentrations using glucose-formulated 2′OMePS AOs. This was studied again via intramuscular administration into 8 week old mdx mice. […] The activity of glucose transporters is known to be stereospecific in that only D-glucose isomers can be actively transported. To further test the idea carrier-mediated glucose uptake might be implicated in the mechanism and to rule out possible osmotic effects of the glucose formulation we investigated the activities of D- and L-glucose isomers in AO formulations. The same concentration of L-glucose was formulated with 2′OMePS AOs and delivered to 8 week old mdx mice by local intramuscular injection.
# To investigate whether specific glucose transporters might be implicated directly in the mechanism of enhanced AO uptake we tested whether or not various inhibitors of glucose transporter function could abolish the enhanced uptake of 2′OMePS AOs into TA muscles in 8 week old mdx mice. Two inhibitor compounds, phloretin and phloridzin, are well-characterised inhibitors of glucose transport. […] That enhanced AO uptake and activity was dependent on a phloretin-sensitive pathway, is a hallmark of involvement of the GLUT family of facilitative glucose transporters. Given that glucose transporter-mediated glucose uptake appeared mechanistically important, we further investigated this by studying whether any products of intracellular glucose metabolism might be implicated downstream in the uptake mechanism. To do this we investigated a glucose analogue, 3-O-methyl glucose (3-OMG) that is effectively transported by glucose transporters but not subject to phosphorylation by glucokinase by using the same concentration of 3-OMG formulated with 2′OMePS AO. Two weeks following intramuscular injection TA muscles cryosections were assayed by immunohistochemistry.
# For intramuscular studies the TA muscle of each experimental mdx mouse was injected with a 40 μl dose of PNA and PNA-peptide conjugates with saline at a final concentration of 125 μg/ml, and the contralateral muscle was injected with saline. For systemic intravenous injections, X μg PNA or PNA-peptide conjugates in 80 μl saline buffer were injected into tail vein of mdx mice at the final dose of 25 mg/kg and 6 mg/kg, respectively. The animals were killed at various time points after injection by CO2 inhalation and tissues were removed and snap-frozen in liquid nitrogen-cooled isopentane and stored at −80° C.
# Sections of 8 μm were cut from at least two-thirds of the muscle length of TA, quadriceps, gastrocnemius, biceps, abdominal wall and diaphragm muscles and cardiac muscle at 100 μm intervals. The sections were then examined for dystrophin expression with a polyclonal antibody 2166 against the dystrophin carboxyl-terminal region. The maximum number of dystrophin-positive fibres in one section was counted using the Zeiss AxioVision fluorescence microscope. The intervening muscle sections were collected either for RT-PCR analysis and Western blot or as serial sections for immunohistochemistry. Polyclonal antibodies were detected by goat-anti-rabbit IgGs Alexa Fluro 594 (Molecular Probe, UK). Routine haematoxylin and eosin staining was used to examine overall muscle morphology and assess the level of infiltrating mononuclear cells. The serial sections were also stained with a panel of polyclonal and monoclonal antibodies for the detection of DAPC protein components. Rabbit polyclonal antibody to neuronal nitric oxide synthase (nNOS) and mouse monoclonal antibodies to β dystroglycan, α-sarcoglycan and β-sarcoglycan were used according to manufacturer's instructions (Novocastra, UK). Polyclonal antibodies were detected by goat-anti-rabbit IgGs Alexa 594 and the monoclonal antibodies by goat-anti-mouse IgGs Alexa 594 (Molecular Probe, UK). […]
# [1] = system: exon and intron 23 of the dystrophin gene; assay: Example 1: intramuscular injection into TA muscle of mdx mice, count of dystrophin-positive fibres by immunohistochemistry; type: in vivo; settings: for dose dependence of dystrophin induction: 5 μg, 10 μg and 20 μg intramuscular; for number of dystrophin-positive fibres per TA muscle: 20 μg intramuscular
# Description: Three age groups of mdx mice were used: 20-21 days (referred to as 3 weeks; five mice for each test and control groups), 2-month old (five mice for test groups and control groups), and 5-6 months (referred to 6 months, six mice for each testing and control group). Mice were killed by cervical dislocation at desired time points, and muscles were snap-frozen in liquid nitrogen-cooled isopentane and stored at −80° C.
# One tibialis anterior (TA) muscle of each experimental mdx mouse was injected with a 40 μl dose (3-week-old group injected with 10 μl) of PNA-peptide conjugates with saline at a final concentration of 125 μg/ml, and the contralateral muscle was injected with saline. The animals were sacrificed at various time points after injection, the muscles were removed and snap-frozen in liquid nitrogen-cooled isopentane and stored at −80° C. To examine the dose-response profile, 2-month old mdx mice received the injections of 10 μg and 20 μg of PNA-peptide conjugates.
# Sections of 8 μm were cut from at least two-thirds of muscle length of TA muscles at 100 μm intervals. The sections were then examined for dystrophin expression with a polyclonal antibody 2166 against the dystrophin carboxyl-terminal dystrophin. The maximum number of dystrophin-positive fibres in one section was counted using the Zeiss AxioVision fluorescence microscope. The intervening muscle sections were collected either for Western blot or as serial sections for immunohistochemistry. Polyclonal antibodies were detected by goat-anti-rabbit IgGs Alexa Fluro 594 (Molecular probe). Routine H&E staining was used to examine overall muscle morphology and assess the level of infiltrating mononuclear cells.
# [2] = system: exon 23 of the dystrophin transcript; assay: RT-PCR of exon 23 skipping after lipofectin transfection of H2K mdx cells; type: cell-based, mouse; settings: 250 nm
# Description: The H2K mdx myoblasts were cultured at 33° C. under a 10% CO2/90% air atmosphere in high-glucose DMEM supplemented with 20% fetal calf serum, 0.5% chicken embryo extract (PAA laboratories Ltd, Yeovil, UK), and 20 units/ml γ-interferon (Roche applied science, Penzberg, Germany). Cells were then treated with trypsin and plated at 2×10^4 cells per well in 24-well plates coated with 200 ug/ml gelatine (Sigma). H2K mdx cells were transfected 24 h after trypsin treatment in a final volume of 0.5 ml of antibiotic- and serum-free Opti-MEM (Life Technologies). Each well was treated with 250 nM of PNA-peptide complexed with corresponding amounts of lipofectin (weight ratio 1:2=oligolipofectin) (Life Technologies) according to the supplier's instructions. After 4 h of incubation, the transfection medium was replaced with DMEM supplemented medium.
# Cells were transfected as triplicate wells with Lipofectin-Oligonucleotide complexes and total cellular RNA was then extracted 24 h after transfection with RNAeasy mini kit (Qiagen) and 200 ng of RNA template was used for 20 μl RT-PCR with OneStep RT-PCR kit (Qiagen, West Sussex, UK). The primer sequences for the initial RT-PCR were Exon20Fo 5′-[…]-3′ (SEQ ID NO: 125) and Ex26Ro 5′-[…]-3′ (SEQ ID NO: 126) for amplification of mRNA from exons 20 to 26. The cycling conditions were 95° C. for 30 sec, 55° C. for lmin, and 72° C. for 2 min for 30 cycles. […]
# [3] = 2-month old mdx mice, 5 μg intramuscular
# [4] = 2-month old mdx mice, single 5 μg intramuscular injection into TA, two weeks
molecule,measurement,setting,value
"CO[C@@H]([C@H](O)[C@H](O)CO)[C@@H](O)C=O [3-OMG, 3-O-methyl glucose]",effect of sugar or analogue used in place of D-glucose in 2′OMePS AO formulation on dystrophin-positive fibres,glucose transporters,decrease in the number of dystrophin-positive fibres
O=C(CCc1ccc(O)cc1)c1c(O)cc(O)cc1O [phloretin],effect of inhibitor on the enhancing effect of 5% D-glucose formulation of 2′OMePS AO,glucose transporters,completely abolished
O=C(CCc1ccc(O)cc1)c1c(O)cc(O)cc1O[C@@H]1O[C@H](CO)[C@@H](O)[C@H](O)[C@H]1O [phloridzin],effect of inhibitor on the enhancing effect of 5% D-glucose formulation of 2′OMePS AO,glucose transporters,partially but significantly abolished
O=C[C@H](O)[C@@H](O)[C@@H](O)[C@H](O)CO [D-galactose],effect of sugar or analogue used in place of D-glucose in 2′OMePS AO formulation on dystrophin-positive fibres,glucose transporters,replicated
O=C[C@@H](O)[C@@H](O)[C@H](O)[C@H](O)CO [D-mannose],effect of sugar or analogue used in place of D-glucose in 2′OMePS AO formulation on dystrophin-positive fibres,glucose transporters,replicated
TVAVNLQSSSTDPATGDVHVM-S-S-Lggccaaacctcggcttacct [AAV6],dystrophin-positive fibres in 3-week and 6-month old mice in comparison with 2-month old mice,[1]; 5 μg intramuscular,slightly fewer dystrophin-positive fibres
same,dystrophin-positive fibres observed (in words),[1]; [3],large number of dystrophin-positive fibres
same,focal areas with strong dystrophin-positive muscle fibres,[1]; [3],observed
same,dose dependence of dystrophin induction,[1]; 2-month old mdx mice,"significant difference between 20 μg and 5, 10 μg injection"
same,number of dystrophin-positive fibres per TA muscle,[1]; 2-month old mdx mice,424 (±86)
same,number of dystrophin-positive fibres,[1]; [4],251
IVADNLQQQNTAPQIGTVNSQ-S-S-Lggccaaacctcggcttacct [AAV8],removal of exon 23 from the dystrophin transcript (RT-PCR),[2],efficient removal of exon 23
same,dystrophin-positive fibres observed (in words),[1]; [3],large number of dystrophin-positive fibres
same,dose dependence of dystrophin induction,[1]; 2-month old mdx mice,significant difference between 10 μg and 5 μg injection; also recorded: no further increase
same,number of dystrophin-positive fibres,"[1]; 2-month old mdx mice, 10 μg intramuscular (printed 'bug')",308±20
same,number of dystrophin-positive fibres per TA muscle,[1]; 2-month old mdx mice,282±63
same,number of dystrophin-positive fibres,[1]; [4],171±40
OCC1OC(O)CC(O)C1O (stereo not drawn) [2-DG],effect of sugar or analogue used in place of D-glucose in 2′OMePS AO formulation on dystrophin-positive fibres,glucose transporters,abolished
ASSLNIA-S-S-Lggccaaacctcggcttacct [MSP],dystrophin-positive fibres observed (in words),[1]; [3],large number of dystrophin-positive fibres
same,focal areas with strong dystrophin-positive muscle fibres,[1]; [3],observed
same,dose dependence of dystrophin induction,[1]; 2-month old mdx mice,not significant
same,number of dystrophin-positive fibres,"[1]; 6-month old mdx mice, single 5 μg intramuscular",237±58
CO[C@H]1O[C@H](CO)[C@H](O)[C@H](O)[C@H]1O [AMG],effect of sugar or analogue used in place of D-glucose in 2′OMePS AO formulation on dystrophin-positive fibres,glucose transporters,abolished
O=C[C@@H](O)[C@H](O)[C@@H](O)[C@@H](O)CO [L-glucose],effect of sugar or analogue used in place of D-glucose in 2′OMePS AO formulation on dystrophin-positive fibres,glucose transporters,significant decrease in number of dystrophin-positive myofibres
